Consider 14 molecules from patent US20240294495A1, “COMPOUNDS THAT MEDIATE PROTEIN DEGRADATION AND METHODS OF USE THEREOF” (Monte Rosa Therapeutics, Inc., priority 2021, published 2024).

One experiment concerns the target CRBN-DDB1 (Homo sapiens, UniProt Q96SW2). Description: Compound binding to CRBN by HTRF assay. To be noted: CRBN-DDB1 2.5 nM, Cy5-Thalidomide 100 nM probe, 30 min incubation; read-out: HTRF Class (Cereblon binding, HTRF IC50). As for the experimental part:
Compound activity was monitored in a Homogenous Time-Resolved Fluorescence (HTRF) assay using 1-[5-({2-[2-(2-{[2-(2,6-dioxopiperidin-3-yl)-1,3-dioxo-2,3-dihydro-1H-isoindol-4-yl]oxy}acetamido)ethoxy]ethyl}carbamoyl)pentyl]-3,3-dimethyl-2-[(1E,3E)-5-[(2E)-1,3,3-trimethyl-5-sulfo-2,3-dihydro-1H-indol-2-ylidene]penta-1,3-dien-1-yl]-3H-indol-1-ium-5-sulfonate as a fluorescent probe. Biochemical assays were conducted in Greiner white 384 well HiBase plates (Cat. No 784075-25) in 10 μL total volume. A one pot detection solution of CRBN-DDB1 (2.5 nM), Anti-His Terbium Cryptate Gold (1×, PerkinElmer Cat. #: 61HI2TLB), and Cy5-Thalidomide (100 nM, Tenova Cat.: T52461) was prepared in 20 mM HEPES, 20 mM NaCl, 0.2 mM TCEP, 0.2 mM EDTA, and 0.005% Tween20 was dispensed to each assay plate. Compounds were stored in dry, ambient temperatures at 10 mM. A 10-point, 1:3 dilution series was prepared from 10 mM stock concentrations in Echo-compatible LDV plates. 10 nL of each compound dilution series was dispensed into assays wells using an Echo 650 (Labcyte inc. USA). 10 nL of 10 mM Lenalidomide was transferred into the active-control wells for the assay and 10 nL of DMSO was transferred into the neutral-control wells. The assay was then allowed to incubate for 30 min at ambient temperature after transferring compound. Plate measurements were taken on a Pherastar FSX (BMG Labtech, Germany) using the HTRF Red filter (Ex. 337 nm, em1: 620 nm, em2: 665 nm) (Flashes: 50, Integration time: 60-400 us, Z-height: 10 mm, Ratio-multiplier: 10,000). The HTRF signal was then subsequently normalized to the neutral and active controls. Analysis and IC50 values were derived using KNIME analytics (KNIME Zurich) transformation and fitting within Collaborative Drug Discovery (Collaborative Drug Discovery USA). Ki was derived from the geometric mean of the IC50 values using the Cheng-Prustoff transformation.
(§1) In Table 2, each compound is assigned a class (HTRF class) indicating the ability for Cereblon binding by means of their HTRF IC50 values according to Example 3: A, B or C. According to the code, A represents an IC50 value of <100 nM, B represents an IC50 value>100 nM and <1000 nM, C represents an IC50 value>1000 nM. IF Class assigns each compound a code indicating the ability for GSPT1 degradation: A, B or C. According to the code, A represents a DC50 value of <30 nM, B represents a DC50 value>30 nM and <300 nM and C represents a DC50 value of >300 nM.
(In general: TR-FRET usually uses a lanthanide donor and a delayed reading to cut background.)

Another experiment concerns the target T1, GSPT1 (Homo sapiens, UniProt P15170+Q96SW2).
T1 construct: CAL-51 cells were purchased from DSMZ (cat. Number ACC302); endogenous in cells; host or cells: CAL-51 (DSMZ ACC302)
Description: Immunofluorescence assay for GSPT1 degradation in CAL-51 cells. To be noted: 6 h treatment, read-out: IF Class (GSPT1 degradation, DC50). In kind it is cell-based. As for the experimental part:
The representative compounds were tested in an immunofluorescence assay for their activity to degrade GSPT1. CAL-51 cells were purchased from DSMZ (cat. Number ACC302), sub-cultured in 90% Dulbecco's MEM (4.5 g/L glucose, Gibco 11965)+10% heat inactivated FBS (BioConcept, 2-01F136I) and incubated at 37° C., 5% CO2. For the assay imaging microtiter plate Cell Carrier 96 Ultra (Perkin Elmer 6055302) were pre-coated with Fibronectin (Sigma F085, 30 μl at 0.2 μg/mL) in PBS (100 μL, Gibco 14190) for 45 min at room temperature, rinsed with PBS and CAL-51 cells (30K cells/well) were plated and let to adhere overnight. Cells were treated with compounds typically using a serial dilution ranging from 30 μM to 0.1 nM for 6 h. Compounds were stored at 10 mM DMSO stocks. Vehicle (DMSO), positive (CC-885, 10 μM) and rescue controls (positive control plus 0.2 μM bortezomib) were also included at this stage. Cells were subsequently rinsed with PBS and fixed in 10% Formalin solution (50 μl, Sigma HT5011)) for 20 min at room temperature. Following three consecutive PBS washes (100 μL), cells were permeabilized in 0.1% Triton X-100 in PBS (Sigma 93443, 50 μl) for 15 min at room temperature. Following three further PBS washes, 50 μl blocking buffer (1% BSA, Sigma A4503, in PBS) was added for 45 min for signal-to noise reduction. Primary antibody (human GSPT1, Sigma HPA052488) was diluted in blocking buffer (dil.1/300, 35 μL/well) and incubated with the cells overnight at 4° C. After three PBS washes, Alexa-fluor 488 coupled secondary antibodies (Invitrogen, A32731, dil.1/1000), Alexa-fluor 647-Phalloidin (Invitrogen, A22287, dil.1/200) and DAPI (Thermo, #62248, dil.1/1000) were diluted in blocking buffer and incubated with the samples for 2 h at room temperature. After three final PBS washes, samples were conserved in 100 μL PBS in the dark, until measurement. Image acquisition was performed on the Operetta High-Content Imager (Perkin-Elmer). Fluorescence intensity of […] (GSPT1), Alexa-Fluor 647 (Actin) and DAPI (Nucleus) were measured. For the determination of GSPT1 DC50 values, a custom algorithm implemented in the PerkinElmer image analysis software Harmony-Acapella® was developed. After user-defined setting of adjustment parameters, the analysis was run identically without human intervention for all image fields. DAPI staining of the nuclei was used to determine the location of cells using standard nuclei detection modules. Segmentation artifacts were removed by threshold-based filters for area, roundness and intensity. The outline of the cells was determined analogously from the sum of the normalized, smoothed DAPI and Actin channel, starting from each nucleus. The Alexa-Fluor 488 (GSPT1) signal intensity in each cell was finally measured, in order to obtain a Mean intensity per cell. GSPT1 degradation (DC50) was calculated after normalization to controls and data import in CDD vault Database, using non-linear regression.
as §1

T1 sequence (P15170 whole entry): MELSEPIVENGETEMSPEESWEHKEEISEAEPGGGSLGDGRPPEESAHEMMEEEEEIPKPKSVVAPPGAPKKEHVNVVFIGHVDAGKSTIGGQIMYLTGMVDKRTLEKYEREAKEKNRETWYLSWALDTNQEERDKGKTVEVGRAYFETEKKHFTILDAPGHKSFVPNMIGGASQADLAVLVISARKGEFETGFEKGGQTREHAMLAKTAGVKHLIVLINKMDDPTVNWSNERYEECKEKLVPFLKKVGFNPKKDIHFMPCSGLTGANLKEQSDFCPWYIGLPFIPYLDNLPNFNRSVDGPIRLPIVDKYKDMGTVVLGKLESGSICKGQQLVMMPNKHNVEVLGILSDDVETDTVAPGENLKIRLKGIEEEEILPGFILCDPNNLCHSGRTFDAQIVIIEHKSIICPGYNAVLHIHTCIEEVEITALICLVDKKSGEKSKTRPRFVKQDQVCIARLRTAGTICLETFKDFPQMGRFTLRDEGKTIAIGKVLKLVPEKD
T1 sequence (Q96SW2 whole entry): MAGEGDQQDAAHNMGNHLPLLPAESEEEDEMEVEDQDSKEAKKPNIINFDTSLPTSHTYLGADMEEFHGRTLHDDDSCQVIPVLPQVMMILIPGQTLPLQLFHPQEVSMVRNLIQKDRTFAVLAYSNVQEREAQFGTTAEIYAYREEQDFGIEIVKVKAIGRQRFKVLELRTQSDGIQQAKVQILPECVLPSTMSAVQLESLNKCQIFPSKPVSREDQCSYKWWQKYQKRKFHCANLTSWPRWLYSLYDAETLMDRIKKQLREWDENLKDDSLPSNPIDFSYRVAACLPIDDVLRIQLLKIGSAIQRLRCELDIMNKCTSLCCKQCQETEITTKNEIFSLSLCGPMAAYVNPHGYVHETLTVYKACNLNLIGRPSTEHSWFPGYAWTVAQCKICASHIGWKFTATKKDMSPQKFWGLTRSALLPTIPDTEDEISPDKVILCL
T1 sequence (Q16531 2-1140 partner limits assumed): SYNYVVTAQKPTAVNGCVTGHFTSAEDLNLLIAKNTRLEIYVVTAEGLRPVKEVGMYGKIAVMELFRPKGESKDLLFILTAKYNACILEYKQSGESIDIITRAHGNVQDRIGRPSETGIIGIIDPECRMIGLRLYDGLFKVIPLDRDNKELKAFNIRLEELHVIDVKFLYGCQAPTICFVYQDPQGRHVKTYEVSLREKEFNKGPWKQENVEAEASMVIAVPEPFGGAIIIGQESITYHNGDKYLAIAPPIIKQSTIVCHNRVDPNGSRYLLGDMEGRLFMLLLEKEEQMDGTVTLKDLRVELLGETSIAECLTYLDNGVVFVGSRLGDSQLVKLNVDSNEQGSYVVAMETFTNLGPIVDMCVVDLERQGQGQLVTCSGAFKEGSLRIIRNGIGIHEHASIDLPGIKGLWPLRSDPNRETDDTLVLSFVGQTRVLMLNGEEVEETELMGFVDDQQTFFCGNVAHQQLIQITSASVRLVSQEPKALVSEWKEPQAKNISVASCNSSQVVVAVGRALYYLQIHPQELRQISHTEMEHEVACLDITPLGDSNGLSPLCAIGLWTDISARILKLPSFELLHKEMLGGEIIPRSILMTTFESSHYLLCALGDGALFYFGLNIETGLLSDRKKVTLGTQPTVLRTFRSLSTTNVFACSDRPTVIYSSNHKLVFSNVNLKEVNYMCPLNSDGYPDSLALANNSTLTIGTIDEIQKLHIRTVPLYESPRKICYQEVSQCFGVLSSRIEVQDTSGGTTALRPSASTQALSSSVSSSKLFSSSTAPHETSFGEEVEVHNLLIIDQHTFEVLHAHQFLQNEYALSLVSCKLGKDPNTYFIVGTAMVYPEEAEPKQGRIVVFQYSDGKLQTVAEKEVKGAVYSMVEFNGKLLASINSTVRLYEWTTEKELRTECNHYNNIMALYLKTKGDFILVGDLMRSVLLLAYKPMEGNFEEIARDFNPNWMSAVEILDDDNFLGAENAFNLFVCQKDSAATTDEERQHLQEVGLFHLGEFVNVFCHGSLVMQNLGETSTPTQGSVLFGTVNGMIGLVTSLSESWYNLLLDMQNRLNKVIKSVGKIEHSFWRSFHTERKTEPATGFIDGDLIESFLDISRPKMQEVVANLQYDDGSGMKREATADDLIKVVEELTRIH
Sequence of CRBN-DDB1 (Q96SW2 whole entry): as the sequence (Q96SW2 whole entry) above
Sequence of CRBN-DDB1 (Q16531 whole entry partner): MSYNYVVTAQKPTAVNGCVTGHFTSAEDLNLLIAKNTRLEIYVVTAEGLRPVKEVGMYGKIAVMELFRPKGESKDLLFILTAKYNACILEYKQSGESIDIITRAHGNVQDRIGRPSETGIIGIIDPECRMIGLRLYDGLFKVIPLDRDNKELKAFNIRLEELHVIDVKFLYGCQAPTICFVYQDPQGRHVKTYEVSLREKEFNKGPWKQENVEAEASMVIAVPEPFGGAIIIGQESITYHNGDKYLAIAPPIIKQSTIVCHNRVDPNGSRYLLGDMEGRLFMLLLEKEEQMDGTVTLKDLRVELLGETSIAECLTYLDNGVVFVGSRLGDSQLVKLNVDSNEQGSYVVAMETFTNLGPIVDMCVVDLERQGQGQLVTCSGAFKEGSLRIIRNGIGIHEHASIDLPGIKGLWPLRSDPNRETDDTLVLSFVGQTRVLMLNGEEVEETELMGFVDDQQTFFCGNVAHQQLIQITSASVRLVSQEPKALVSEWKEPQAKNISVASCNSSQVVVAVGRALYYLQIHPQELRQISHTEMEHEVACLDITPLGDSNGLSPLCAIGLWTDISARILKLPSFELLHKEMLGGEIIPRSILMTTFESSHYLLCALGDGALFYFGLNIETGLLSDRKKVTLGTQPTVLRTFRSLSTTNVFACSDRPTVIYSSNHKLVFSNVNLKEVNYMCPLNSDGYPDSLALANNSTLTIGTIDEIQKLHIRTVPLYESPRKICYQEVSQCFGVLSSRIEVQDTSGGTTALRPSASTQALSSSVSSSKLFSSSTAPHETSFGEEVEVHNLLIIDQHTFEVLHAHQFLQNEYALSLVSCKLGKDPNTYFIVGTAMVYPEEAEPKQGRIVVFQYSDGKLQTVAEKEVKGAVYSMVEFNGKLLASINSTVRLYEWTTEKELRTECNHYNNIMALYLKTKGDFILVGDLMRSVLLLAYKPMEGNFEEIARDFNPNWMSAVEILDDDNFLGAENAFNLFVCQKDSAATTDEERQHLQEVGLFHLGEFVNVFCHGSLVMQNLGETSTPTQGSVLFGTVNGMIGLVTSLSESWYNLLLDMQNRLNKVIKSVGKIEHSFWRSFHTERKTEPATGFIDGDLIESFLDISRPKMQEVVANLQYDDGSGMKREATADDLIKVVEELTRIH

A word on the IC50: it is the concentration at which inhibition is half-maximal. A word on the DC50: it is the midpoint of the concentration-degradation curve. As to `O=C1CCC(c2c(F)cc(N3CC(NC(=O)Cc4cccc(OC(F)(F)F)c4)C3)cc2F)C(=O)N1` (stereo not shown) [Compound 28, N-(1-(4-(2,6-dioxopiperidin-3-yl)-3,5-difluorophenyl)azetidin-3-yl)-2-(3-(trifluoromethoxy)phenyl) acetamide], the IC50 at CRBN-DDB1 lay within 100 to 1000 nM. Moreover, the DC50 on GSPT1 lay in the range of 30 to 300 nM.

In the case of `Cc1cc(CC(=O)NC2CN(c3cc(F)c(C4CCC(=O)NC4=O)c(F)c3)C2)ncc1Cl` (stereo not shown) [Compound 22, 2-(5-chloro-4-methylpyridin-2-yl)-N-(1-(4-(2,6-dioxopiperidin-3-yl)-3,5-difluorophenyl)azetidin-3-yl)acetamide], the IC50 on CRBN-DDB1 is 100 to 1000 nM. Further, the half-maximal degradation concentration (DC50) at GSPT1 was over 300 nM.

For `Cc1cc(NC(=O)CC2CN(c3cc(F)c(C4CCC(=O)NC4=O)c(F)c3)C2)ccc1Cl` (stereo not shown) [Compound 3, N-(4-chloro-3-methylphenyl)-2-(1-(4-(2,6-dioxopiperidin-3-yl)-3,5-difluorophenyl)azetidin-3-yl)acetamide], the IC50 at CRBN-DDB1 was 100 to 1000 nM. Also, at GSPT1, the DC50 was under 30 nM.

For `Cc1cc(F)cc(CC(=O)NC2CN(c3cc(F)c(C4CCC(=O)NC4=O)c(F)c3)C2)c1` (stereo not shown) [Compound 7, N-(1-(4-(2,6-dioxopiperidin-3-yl)-3,5-difluorophenyl)azetidin-3-yl)-2-(3-fluoro-5-methylphenyl)acetamide], the IC50 at CRBN-DDB1 is 100 to 1000 nM. Also, the DC50 on GSPT1 was over 300 nM.

Take `O=C1CCC(c2c(F)cc(N3CC(CC(=O)Nc4cc(OC(F)(F)F)ccc4F)C3)cc2F)C(=O)N1` (stereo not shown) [Compound 9, 2-(1-(4-(2,6-dioxopiperidin-3-yl)-3,5-difluorophenyl)azetidin-3-yl)-N-(2-fluoro-5-(trifluoromethoxy)phenyl)acetamide]: the half-maximal inhibitory concentration (IC50) at CRBN-DDB1 fell in the range of 100 to 1000 nM. Further, the DC50 on GSPT1 was under 30 nM.

For `Cc1cc(CC(=O)NC2CN(c3ccc(C4CCC(=O)NC4=O)c(Cl)c3)C2)ccc1Cl` (stereo not shown) [Compound 33, 2-(4-chloro-3-methylphenyl)-N-(1-(3-chloro-4-(2,6-dioxopiperidin-3-yl)phenyl)azetidin-3-yl)acetamide], on CRBN-DDB1, the IC50 lay in the range of 100 to 1000 nM. Also, the DC50 at GSPT1 lay within 30 to 300 nM.

For `O=C1CCC(c2c(F)cc(N3CC(NC(=O)Cc4ccc5c(c4)OCC5)C3)cc2F)C(=O)N1` (stereo not shown) [Compound 24, 2-(2,3-dihydrobenzofuran-6-yl)-N-(1-(4-(2,6-dioxopiperidin-3-yl)-3,5-difluorophenyl)azetidin-3-yl)acetamide], the IC50 on CRBN-DDB1 is 100 to 1000 nM. In addition, the DC50 at GSPT1 is over 300 nM.

In the case of `O=C1CCC(c2c(F)cc(N3CC(NC(=O)Cc4cccc(Cl)c4)C3)cc2F)C(=O)N1` (stereo not shown) [Compound 32, 2-(3-chlorophenyl)-N-(1-(4-(2,6-dioxo-3-piperidyl)-3,5-difluoro-phenyl)azetidin-3-yl)acetamide], the IC50 on CRBN-DDB1 is 100 to 1000 nM. Moreover, the DC50 at GSPT1 lay in the range of 30 to 300 nM.

As for `O=C1CCC(c2c(F)cc(N3CC(NC(=O)Cc4cc(Cl)ccc4F)C3)cc2F)C(=O)N1` (stereo not shown) [Compound 12, 2-(5-chloro-2-fluorophenyl)-N-(1-(4-(2,6-dioxopiperidin-3-yl)-3,5-difluorophenyl)azetidin-3-yl)acetamide], the IC50 on CRBN-DDB1 was under 100 nM. Besides, the 50% degradation concentration (DC50) on GSPT1 is 30 to 300 nM.

In the case of `O=C1CCC(c2c(F)cc(N3CC(NC(=O)Cc4ccc(Cl)c(F)c4)C3)cc2F)C(=O)N1` (stereo not shown) [Compound 14, 2-(4-chloro-3-fluorophenyl)-N-(1-(4-(2,6-dioxopiperidin-3-yl)-3,5-difluorophenyl)azetidin-3-yl)acetamide], the IC50 at CRBN-DDB1 fell in the range of 100 to 1000 nM. Also, on GSPT1, the DC50 was over 300 nM.

Take `Cc1c(Cl)cc(CC(=O)NC2CN(c3cc(F)c(C4CCC(=O)NC4=O)c(F)c3)C2)cc1CN1CCOCC1` (stereo not shown) [Compound 18, 2-(3-chloro-4-methyl-5-(morpholinomethyl)phenyl)-N-(1-(4-(2,6-dioxopiperidin-3-yl)-3,5-difluorophenyl)azetidin-3-yl)acetamide]: at CRBN-DDB1, the IC50 lay within 100 to 1000 nM. For the same molecule, the DC50 at GSPT1 is under 30 nM.

Take `O=C1CCC(c2c(F)cc(N3CC(NC(=O)Cc4cc(F)cc(F)c4)C3)cc2F)C(=O)N1` (stereo not shown) [Compound 8, 2-(3,5-difluorophenyl)-N-(1-(4-(2,6-dioxopiperidin-3-yl)-3,5-difluorophenyl)azetidin-3-yl) acetamide]: the IC50 at CRBN-DDB1 was 100 to 1000 nM. For the same molecule, the DC50 at GSPT1 is over 300 nM.

Regarding `O=C1CCC(c2c(F)cc(N3CC(NC(=O)Cc4ccc(Cl)cn4)C3)cc2F)C(=O)N1` (stereo not shown) [Compound 10, 2-(5-chloropyridin-2-yl)-N-(1-(4-(2,6-dioxopiperidin-3-yl)-3,5-difluorophenyl)azetidin-3-yl)acetamide], the IC50 at CRBN-DDB1 is under 100 nM. The DC50 at GSPT1 is over 300 nM.

Regarding `COc1cc(Cl)ccc1CC(=O)NC1CN(c2cc(F)c(C3CCC(=O)NC3=O)c(F)c2)C1` (stereo not shown) [Compound 27, 2-(4-chloro-2-methoxyphenyl)-N-(1-(4-(2,6-dioxopiperidin-3-yl)-3,5-difluorophenyl)azetidin-3-yl)acetamide], on CRBN-DDB1, the IC50 lay in the range of 100 to 1000 nM. Besides, the DC50 at GSPT1 was 30 to 300 nM.
